# Key:
# [1] = system: ketamine-induced perceptual abnormalities in healthy subjects; details: 300 mg oral lamotrigine; cited from earlier work
# [2] = system: ketamine-induced psychological disturbances in adults scheduled for elective noncardiac surgery; assay: Pilot randomized, double-blind trial of lamotrigine before surgery with ketamine anesthesia; type: in vivo, human
# From the text: We report the finding of a pilot randomized and double-blind trial in which we tested the hypothesis that a single 300-mg dose of lamotrigine given a few hours before surgery reduces ketamine-induced psychological disturbances. We enrolled 46 adults (23 Lamotrigine, 23 placebo) 18-65 years who were scheduled for elective noncardiac surgery with general anesthesia with a planned overnight stay at Cleveland Clinic main campus between April 2019 and October 2019. All included patients provided written informed consent during their preoperative clinic visit. The trial was approved by Cleveland Clinic Institutional Review Board and was registered at clinicaltrails.gov [NCT03831854; PI Kamal Maheshwari; February 2019]. It was a priori defined as a pilot trial.
# All patients received ketamine 1 mg/kg bolus at induction of anesthesia followed by a 5-μg/kg/min infusion which was stopped at the end of surgery. Anesthesia generally included propofol, a muscle relaxant, fentanyl, and sevoflurane. The primary outcome was presence of the psychologic disturbances measured 30-90 min after admission to the post-anesthesia care unit. We evaluated four key items of the Brief Psychiatric Rating Scale corresponding to positive symptoms of schizophrenia: conceptual disorganization, hallucinatory behavior, suspiciousness, and unusual thought content. Each symptom was rated 1-7 (1=not present, 2=very mild, 3=mild, 4=moderate, 5=moderately severe, 6=severe, 7=extremely severe). Secondary outcomes were opioid use, pain, and postoperative nausea or vomiting in the post-anesthesia care unit.
# [3] = system: psychologic disturbances associated with perioperative ketamine use; details: reported range across studies (Avidan et al. 2017); cited from earlier work
smiles,measurement,setting,value
Nc1nnc(-c2cccc(Cl)c2Cl)c(N)n1 [lamotrigine],effect on ketamine-induced perceptual abnormalities,[1],significantly decreased
same,"pain scores, difference in means lamotrigine vs placebo","[2]; 98.3% CI −1.7, 2.6, P=0.58",0.5
same,"Opioid use, median difference lamotrigine vs placebo","[2]; 98.3% CI −9.5, 5.0, P=0.63",−2.3
same,"pain scores, mean±standard deviation","[2]; in the post-anesthesia care unit, lamotrigine 300 mg patients",4.9±3.1
same,patients who experienced nausea or vomiting,[2]; in vivo,Five
same,patients with psychologic disturbances (four key items of the Brief Psychiatric Rating Scale),"[2]; single 300-mg dose of lamotrigine a few hours before surgery, ketamine 1 mg/kg bolus then 5-μg/kg/min infusion, measured 30-90 min after admission to post-anesthesia care unit, n=23",No patients
CNC1(c2ccccc2Cl)CCCCC1=O (centres unmarked) [ketamine],incidence of psychologic disturbances associated with perioperative ketamine use,[3],7% to 27
same,patients who displayed psychologic disturbances,"[2]; all trial patients (lamotrigine and placebo groups), moderate dose of ketamine: 1 mg/kg bolus then 5-μg/kg/min infusion",6%

# — patent US20220175692A1, “PRESYNAPTIC GLUTAMATE RELEASE INHIBITORS FOR DECREASING NMDA ANTAGONIST SIDE EFFECTS IN ANESTHESIA” (THE CLEVELAND CLINIC FOUNDATION, priority 2020, published 2022)
